# Test results published in the NIST ThermoML archive (doi:10.1021/je030106k).
# ± gives the expanded uncertainty stated by the source.
# Conditions: Liquid
vapor or sublimation pressure (273.15 K) [kPa],vapor or sublimation pressure (283.15 K) [kPa],vapor or sublimation pressure (293.15 K) [kPa],vapor or sublimation pressure (303.15 K) [kPa],Compound
475 ± 1.8,637.8 ± 2.2,836 ± 2.6,1078.4 ± 3.2,CCC [propane]
157.2 ± 1.6,221.8 ± 1.8,303.4 ± 2.1,405.2 ± 2.6,CC(C)C [2-methylpropane]
